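Following 48 hours of exposure in 96-well plates, responses at five concentrations were used to interpolate endpoints linearly. GI50 is the concentration that inhibits growth by half. TGI: concentration producing complete growth inhibition.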
Test system: OVCAR-8 ovarian
Assay: NCI anticancer screen, dose series, 48 h

`CNC(=O)C(C)C1CCC2(C)C=CC(=O)C(C)=C2C1O` (stereo not given) and `COC(=O)[C@H]1CO[C@@H](C(C)(C)C)N1C(=O)N1C=CC(=O)C[C@@H]1C` cannot be ordered by TGI: greater than 87.9 µM for the first, greater than 100 µM for the second.

`O=C(NNC(=O)c1ccccc1SSc1ccccc1C(=O)NNC(=O)c1ccccc1S)c1ccccc1S` and `NC(=O)C(c1ccccc1)N1OC2C(=O)N(c3ccccc3)C(=O)C2C1c1c2ccccc2c(Cl)c2ccccc12` (stereo not given) cannot be ordered by TGI: greater than 100 µM for the first, greater than 100 µM for the second.

Compared with `CCOC(=O)C(NC(C)=O)(Nc1ccc(F)cc1)C(F)(F)F` (stereo not given), `CC1(C)N=C(/C(Cl)=[N+](/[O-])C(=O)c2ccc(F)cc2)C(C)(C)N1O` is lower in TGI: greater than 100 µM for the first, 33.9 µM for the second.

First: CCOc1cc2c(cc1O)/C(=N\OC)C[C@@H]1[C@@H]2CC[C@]2(C)[C@@H](O)CC[C@@H]12
Second: COc1ccc(CNc2nc(NCc3ccc(OC)c(OC)c3)nc(NC3CCCCC3)n2)cc1
The TGI of the first is lower: 3.91 µM for the first, greater than 100 µM for the second.

`O=C1/C(=C/c2ccc(O)cc2)CC/C1=C\c1ccc(O)cc1` and `O=C(O)c1cccc2c1/C(=N/Nc1ccccc1)CC2` cannot be ordered by TGI: greater than 100 µM for the first, greater than 100 µM for the second.

`CC(C)C1/C(=N/O)CC(c2ccccc2)N(N=O)C1c1ccccc1` (stereo not given) and `O=C(Cc1cccs1)N[C@@H]1C(=O)N2C(C(=O)OC(c3ccccc3)c3ccccc3)=C(CO)CS[C@H]12` cannot be ordered by TGI: greater than 100 µM for the first, greater than 100 µM for the second.

`COC(=O)[C@H](Cc1c[nH]c2ccccc12)NP(=O)(O)OCC1C=CC(n2cc(C)c(=O)[nH]c2=O)O1` (stereo not given in full) and `Cc1cn(C2CC(n3cc(Cn4cc(I)c(=O)[nH]c4=O)nn3)C(CO)O2)c(=O)[nH]c1=O` (stereo not given) cannot be ordered by TGI: greater than 100 µM for the first, greater than 100 µM for the second.

First: COc1cc(/C=C2\S/C(=N/Nc3nc(-c4ccc(Br)cc4)cs3)NC2=O)cc(OC)c1OC
Second: Clc1ccc(/C=C/c2nc3ccccc3s2)cc1Cl
The TGI of the first is lower: 29.6 µM for the first, greater than 100 µM for the second.

Going from `CCCNC1=C2CC(C)CC(OC)[C@@H](O)[C@H](C)/C=C(\C)C(OC(N)=O)C(OC)/C=C\C=C(/C)C(=O)NC(=CC1=O)C2=O` (stereo not given in full) to `CC(=O)NC1=C(NCCC(C)C)C(=O)c2ccccc2C1=O`, the TGI rises from 32.5 µM to greater than 50 µM.

`C[n+]1c2ccccc2c(/C=N\NS(=O)(=O)c2ccc(O)c(C(=O)O)c2)c2ccccc21` and `O=S1(=O)NC(=NCc2c[nH]c3ccccc23)N(c2ccccc2)c2ccncc21` cannot be ordered by TGI: greater than 100 µM for the first, greater than 100 µM for the second.

`O=C(Nc1ccc(C2=NCCN2)cc1)c1cncc(C(=O)Nc2ccc(C3=NCCN3)cc2)c1` and `C(/c1ccco1)=c1/nc(-c2ccccc2)n2c1nc1ccccc12` cannot be ordered by TGI: greater than 100 µM for the first, greater than 100 µM for the second.

`CCC1(O)CC2CC(=O)OC2C1O` (stereo not given) and `Cc1cn(C2CC(N(O)C(N)=O)C(CO)O2)c(=O)[nH]c1=O` (stereo not given) cannot be ordered by TGI: greater than 100 µM for the first, greater than 100 µM for the second.

`Cc1ccc(SCC(CSCCO)OCn2cnc3c2NC(N)=NC32OCCO2)cc1` (stereo not given) and `CC[C@@]1(C[C@H]2C[C@@]3(C(=O)OC)c4[nH]c5ccccc5c4CCN3C2=O)COC2(CCCCC2)O1` cannot be ordered by TGI: greater than 100 µM for the first, greater than 100 µM for the second.

`CC(C)CCCCCCCCCCCCC(=O)NCC(=O)NC1C(C)OC(Nc2ncnc3c2ncn3C)C(O)C1O` (stereo not given) and `CCOC(=O)Nn1c(C)nnc1-c1ccccc1` cannot be ordered by TGI: greater than 100 µM for the first, greater than 100 µM for the second.

`C[C@@]12C[C@@H](c3ccccc3O1)N1CCCCSC1=N2` and `O=C1CCC23CC(C=CC=C12)n1c(=O)n(-c2ccccc2)c(=O)n13` (stereo not given) cannot be ordered by TGI: greater than 100 µM for the first, greater than 100 µM for the second.

`c1ccc(N=C2SC3=Nc4cccc5cccc(c45)N3C2=Nc2ccccc2)cc1` and `O=C1CCC(=O)N1n1c(Cc2ccccc2)n[nH]c1=O` cannot be ordered by TGI: greater than 100 µM for the first, greater than 100 µM for the second.

First: Oc1cc2c3c(c1)c1cc4c(cc1c[n+]3CC2)OCO4
Second: CC1=C(C)[C@@]2(C)O[C@@]2(C)O[C@@]2(C)O[C@@]12C
The TGI of the first is lower: 14.1 µM for the first, greater than 100 µM for the second.

For `O=C([O-])CC(=O)[O-].O=C([O-])CC(=O)[O-].[K+].[Pd+2]`, the TGI was greater than 100 µM.

Going from `CCCNC1=C2CC(C)CC(OC)[C@@H](O)[C@H](C)/C=C(\C)C(OC(N)=O)C(OC)/C=C\C=C(/C)C(=O)NC(=CC1=O)C2=O` (stereo not given in full) to `O=C([O-])CC(=O)[O-].O=C([O-])CC(=O)[O-].[K+].[Pd+2]`, the GI50 rises from 0.393 µM to greater than 100 µM.

Test system: SF-268 CNS
Assay: NCI anticancer screen, dose series, 48 h

Going from `O=c1[nH][nH]c(=O)n1Cc1ccccc1Cn1c(=O)[nH][nH]c1=O` to `CCOC(=O)c1c2ccccc2n2c(N)c(C(N)=O)nnc12`, the TGI falls from greater than 100 µM to 56.3 µM.

`CC1C=C(CCCCCCCCCCCC[C@@H](O)[C@@H]2CC[C@@H]([C@@H]3CC[C@@H](C(O)CCCCCCCCCCCCC4=C[C@H](C)OC4=O)O3)O2)C(=O)O1` (stereo not given in full) and `CCOc1cc2c(cc1O)/C(=N\OC)C[C@@H]1[C@@H]2CC[C@]2(C)[C@@H](O)CC[C@@H]12` cannot be ordered by TGI: greater than 100 µM for the first, greater than 43.3 µM for the second.

`CCNC(=S)N/N=C/c1cc([N+](=O)[O-])ccc1O` and `CCOC(=O)C(NC(C)=O)(Nc1ccc(F)cc1)C(F)(F)F` (stereo not given) cannot be ordered by TGI: greater than 100 µM for the first, greater than 100 µM for the second.

Compared with `COc1cc([C@@H]2OCC3C(c4ccc5c(c4)OCO5)OCC32)cc(OC)c1OC` (stereo not given in full), `CC[C@@]1(O)C(=O)OCc2c1cc1n(c2=O)Cc2c-1nc1ccccc1c2/C=N\NC(=O)CN` is lower in TGI: greater than 100 µM for the first, 16.7 µM for the second.

`Cc1cc(N(CCC#N)CCC#N)ccc1/C(N=Nc1ccc(Cl)cc1)=N\NC(=O)c1ccccc1` and `N#CN=C(N(Cc1ccccc1)Cc1ccccc1)N(Cc1ccccc1)Cc1ccccc1` cannot be ordered by TGI: greater than 100 µM for the first, greater than 100 µM for the second.

`CCc1ccc(CCN2CCCCC2)nc1` and `CNC(=O)C(C)C1CCC2(C)C=CC(=O)C(C)=C2C1O` (stereo not given) cannot be ordered by TGI: greater than 100 µM for the first, greater than 100 µM for the second.

Molecule `O=C(NNC(=O)c1ccccc1SSc1ccccc1C(=O)NNC(=O)c1ccccc1S)c1ccccc1S` has a TGI greater than 52.5 µM.

From PubChem BioAssay (NCI)
